From ChEMBL document CHEMBL4017484, “Nitric Oxide Donor-Based Cancer Therapy: Advances and Prospects” (J Med Chem, 2017) come the findings set out here.

In data set [1] the test system is HL-60. Nature of the data set: Antiproliferative activity against human HL60 cells assessed as decrease in cell viability measured after 3 days by MTT assay. In kind it is functional, cell-based. The settings on record: HL-60, 72 h. (In general: Tetrazolium dyes change colour on reduction, which living cells bring about.)
The subject of data set [2] is HL-60. Briefly: Antitumor activity against human HL60 cells xenografted in NOD-SCID mouse assessed as reduction in tumor growth at 4 umol/kg, iv measured after 15 to 20 days. The data set is classed as functional. The settings on record: HL-60, iv, read-out: TGI. A general note: A xenograft is tissue or cells of one species grown in another, often human tumour cells in immunodeficient mice.

Data set [3] can be described thus: Acute toxicity in iv dosed BALB/c nude mouse assessed as mortality after 14 days. The settings on record: in vivo. The data set is classed as organism-based.
The subject of data set [4] is HT-29. Briefly: Antitumor activity against human HT-29 cells xenografted in athymic nu/nu mouse assessed as reduction in tumor growth at 100 mg/kg administered every day for 18 days relative to vehicle-treated control. The data set is classed as functional. The settings on record: HT-29, 432 h, read-out: TGI.
Substrate in data set [5]: CC(=O)N[C@H]1[C@@H]([C@H](O)[C@H](O)CO)O[C@@](O/N=[N+](\[O-])N2CCCC2)(C(=O)O)C[C@@H]1O
Nature of the data set: Activity at Clostridium perfringens neuraminidase assessed as release of nitric oxide by UV-vis spectrophotometer.

For orientation: IC50 means the point on the concentration scale where inhibition reaches its midpoint. Usually LD50 stands for the dose expected to kill half of the subjects tested. For orientation: Km means the concentration of substrate that gives half-maximal velocity.

For `CCOC(=O)N1CCN(/[N+]([O-])=N/Oc2ccc([N+](=O)[O-])cc2[N+](=O)[O-])CC1`, the IC50 in data set [1] lay within 200 to 500 nM. Moreover, the inhibition in vivo at 4 µmol/kg in data set [2] was 50%.

Regarding `CC1(C)CC[C@]2(C(=O)O[C@H]3O[C@@H](CO)[C@H](O)[C@@H](O)[C@@H]3O)CC[C@]3(C)C(=CC[C@@H]4[C@@]5(C)CC[C@H](OC(=O)CCC(=O)OC6CCN(/[N+]([O-])=N/O[C@@H]7O[C@H](CO)[C@H](O)[C@H](O)[C@H]7O)CC6)C(C)(C)[C@@H]5CC[C@]43C)[C@@H]2C1`, the LD50 at 336 h in data set [3] is 173 mg/kg.

In the case of `O=C(CCCO[N+](=O)[O-])Oc1ccccc1C(=O)Oc1ccc(-c2cc(=S)ss2)cc1`, the inhibition in vivo at 100 mg/kg in data set [4] is 85%.

B1: Sialidase (Clostridium perfringens), P10481 (protein)
chain: MCNKNNTFEKNLDISHKPEPLILFNKDNNIWNSKYFRIPNIQLLNDGTILTFSDIRYNGPDDHAYIDIASARSTDFGKTWSYNIAMKNNRIDSTYSRVMDSTTVITNTGRIILIAGSWNTNGNWAMTTSTRRSDWSVQMIYSDDNGLTWSNKIDLTKDSSKVKNQPSNTIGWLGGVGSGIVMDDGTIVMPAQISLRENNENNYYSLIIYSKDNGETWTMGNKVPNSNTSENMVIELDGALIMSTRYDYSGYRAAYISHDLGTTWEIYEPLNGKILTGKGSGCQGSFIKATTSNGHRIGLISAPKNTKGEYIRDNIAVYMIDFDDLSKGVQEICIPYPEDGNKLGGGYSCLSFKNNHLGIVYEANGNIEYQDLTPYYSLINKQ
Consider B1, for which the Km in data set [5] stood at 140 µM.
